Experimental data: paper PMC8708492, “Homing Peptide-Based Targeting of Tenascin-C and Fibronectin in Endometriosis” (Nanomaterials, 2021)

Assays:
[1] = tested on: HESC cells; test: Binding of peptide-displaying T7 phages to cultured cells (plaque assay); parameters: species or system human; settings: peptide displayed on T7 phage, HESC cells in suspension, 4 °C, 1 h, washed, N = 3
Experimental: (§1) Peptide-displaying T7 bacteriophages were prepared by cloning nucleotide sequences coding for different peptides into phage genomic DNA to be expressed on the phage surface as C-terminal fusions to capsid protein. The complementary oligonucleotides were annealed, and the cloning was performed according to the manufacturer’s protocol using the T7Select® 415-1 Cloning Kit (Millipore, 70015-3, Merck KGaA, Darmstadt, Germany). Peptide-displaying phage clones were thereafter amplified in complementing host bacterial cells BLT5403 and purified with polyethylene glycol according to an established protocol.
(§2) Prior to phage addition, 12Z and HESC cells were detached, washed with PBS, and resuspended in 0.5% BSA containing DMEM. Phages expressing a single peptide of interest (5 × 10^7 PFU/mL) were added to 5 × 10^7 cells, wherein insertless phage was used as a negative control. Incubation with phage clones was carried out on a slowly rocking platform at 4 °C for 1 h. Cells were washed four times with 0.5% BSA containing DMEM to eliminate unbound phages. Finally, the cells together with bound phages were resuspended in 1% NP40 containing LB solution, and plaque assay was performed as described earlier. Briefly, the amount of phage in cell lysates was determined by titering using Escherichia coli strain BLT5615 in LB medium containing 2 mM IPTG.
(§3) Figure 1 Binding of peptide-phages to cultured 12Z and HESC cells. Cells were incubated with the different peptide-displaying phages at 4 °C for 1 h, washed, and phage binding quantified by plaque assay. The phage binding is represented as a fold over insertless phage. N = 3, error bars = ±SEM. *** p < 0.001 (compared with insertless phage).

[2] = tested on: 12Z cells; test: as above; parameters: species or system human; settings: peptide displayed on T7 phage, 12Z cells in suspension, 4 °C, 1 h, washed, N = 3
Experimental: as §1, §2, §3

Substance | phage binding, fold over insertless phage [1] | phage binding, fold over insertless phage [2]
PPRRGLIKLKTS [PL1] | 13–16 fold | 13–16 fold
VRRADNRPG [EM1, receptor CNGB3] | – | low/background binding
C * RGDKGPDC * (disulfide) [iRGD, disulfide-cyclised peptide targeting angiogenic αv integrins and NRP-1] | 9 fold | 3 fold
AGRGRLVR (displayed on T7 phage) [PL3] | 4–6 fold | 4–6 fold
RTRLHTR [EM2, receptor unknown] | ~ 2 fold | low/background binding
RPARPAR | ~ 2 fold | low/background binding
